Assay results from US20040259866A1, “Calcium channel blockers comprising two benzhydril moieties” (priority 1998, published 2004).

Molecular target: T1, rat α1B+α2b+β1b channels (N-type channels) (Rattus norvegicus, UniProt Q02294)
T1 construct: expressed in transfected cells
Assay: Block of α1B N-type channels, whole cell patch recordings (Example 6)
Type: cell-based
Details: 0.067 Hz; HEK 293, 5 mM barium as charge carrier; read-out: Block of α1B N-type Channels IC50, 0.067 Hz
Protocol: Antagonist activity was measured using whole cell patch recordings on human embryonic kidney cells either stably or transiently expressing rat α1B+α2b+β1b channels (N-type channels) with 5 mM barium as a charge carrier.
For transient expression, host cells, such as human embryonic kidney cells, HEK 293 (ATCC# CRL 1573) were grown in standard DMEM medium supplemented with 2 mM glutamine and 10% fetal bovine serum. HEK 293 cells were transfected by a standard calcium-phosphate-DNA coprecipitation method using the rat α1B+β1b+α2δ N-type calcium channel subunits in a vertebrate expression vector (for example, see Current Protocols in Molecular Biology).
After an incubation period of from 24 to 72 hrs the culture medium was removed and replaced with external recording solution (see below). Whole cell patch clamp experiments were performed using an Axopatch 200B amplifier (Axon Instruments, Burlingame, Calif.) linked to an IBM compatible personal computer equipped with pCLAMP software. Borosilicate glass patch pipettes (Sutter Instrument Co., Novato, Calif.) were polished (Microforge, Narishige, Japan) to a resistance of about 4 MΩ when filled with cesium methanesulfonate internal solution (composition in MM: 109 CsCH3SO4, 4 MgCl2, 9 EGTA, 9 HEPES, pH 7.2). Cells were bathed in 5 mM Ba^++ (in mM: 5 BaCl2, 1 MgCl2, 10 HEPES, 40 tetraethylammonium chloride, 10 glucose, 87.5 CsCl pH 7.2). […] Drugs were perfused directly into the vicinity of the cells using a microperfusion system.
Normalized dose-response curves were fit (Sigmaplot 4.0, SPSS Inc., Chicago, Ill.) by the Hill equation to determine IC50 values. Steady-state inactivation curves were plotted as the normalized test pulse amplitude following 5 s inactivating prepulses at +10 mV increments. Inactivation curves were fit (Sigmaplot 4.0) with the Boltzman equation, Ipeak (normalized)=1/(1+exp((V-Vh)z/25.6)), where V and Vh are the conditioning and half inactivation potentials, respectively, and z is the slope factor.
Using the procedure set forth above, various compounds of the invention were tested for their ability to block N-type calcium channels.

T1 sequence (Q02294 whole entry): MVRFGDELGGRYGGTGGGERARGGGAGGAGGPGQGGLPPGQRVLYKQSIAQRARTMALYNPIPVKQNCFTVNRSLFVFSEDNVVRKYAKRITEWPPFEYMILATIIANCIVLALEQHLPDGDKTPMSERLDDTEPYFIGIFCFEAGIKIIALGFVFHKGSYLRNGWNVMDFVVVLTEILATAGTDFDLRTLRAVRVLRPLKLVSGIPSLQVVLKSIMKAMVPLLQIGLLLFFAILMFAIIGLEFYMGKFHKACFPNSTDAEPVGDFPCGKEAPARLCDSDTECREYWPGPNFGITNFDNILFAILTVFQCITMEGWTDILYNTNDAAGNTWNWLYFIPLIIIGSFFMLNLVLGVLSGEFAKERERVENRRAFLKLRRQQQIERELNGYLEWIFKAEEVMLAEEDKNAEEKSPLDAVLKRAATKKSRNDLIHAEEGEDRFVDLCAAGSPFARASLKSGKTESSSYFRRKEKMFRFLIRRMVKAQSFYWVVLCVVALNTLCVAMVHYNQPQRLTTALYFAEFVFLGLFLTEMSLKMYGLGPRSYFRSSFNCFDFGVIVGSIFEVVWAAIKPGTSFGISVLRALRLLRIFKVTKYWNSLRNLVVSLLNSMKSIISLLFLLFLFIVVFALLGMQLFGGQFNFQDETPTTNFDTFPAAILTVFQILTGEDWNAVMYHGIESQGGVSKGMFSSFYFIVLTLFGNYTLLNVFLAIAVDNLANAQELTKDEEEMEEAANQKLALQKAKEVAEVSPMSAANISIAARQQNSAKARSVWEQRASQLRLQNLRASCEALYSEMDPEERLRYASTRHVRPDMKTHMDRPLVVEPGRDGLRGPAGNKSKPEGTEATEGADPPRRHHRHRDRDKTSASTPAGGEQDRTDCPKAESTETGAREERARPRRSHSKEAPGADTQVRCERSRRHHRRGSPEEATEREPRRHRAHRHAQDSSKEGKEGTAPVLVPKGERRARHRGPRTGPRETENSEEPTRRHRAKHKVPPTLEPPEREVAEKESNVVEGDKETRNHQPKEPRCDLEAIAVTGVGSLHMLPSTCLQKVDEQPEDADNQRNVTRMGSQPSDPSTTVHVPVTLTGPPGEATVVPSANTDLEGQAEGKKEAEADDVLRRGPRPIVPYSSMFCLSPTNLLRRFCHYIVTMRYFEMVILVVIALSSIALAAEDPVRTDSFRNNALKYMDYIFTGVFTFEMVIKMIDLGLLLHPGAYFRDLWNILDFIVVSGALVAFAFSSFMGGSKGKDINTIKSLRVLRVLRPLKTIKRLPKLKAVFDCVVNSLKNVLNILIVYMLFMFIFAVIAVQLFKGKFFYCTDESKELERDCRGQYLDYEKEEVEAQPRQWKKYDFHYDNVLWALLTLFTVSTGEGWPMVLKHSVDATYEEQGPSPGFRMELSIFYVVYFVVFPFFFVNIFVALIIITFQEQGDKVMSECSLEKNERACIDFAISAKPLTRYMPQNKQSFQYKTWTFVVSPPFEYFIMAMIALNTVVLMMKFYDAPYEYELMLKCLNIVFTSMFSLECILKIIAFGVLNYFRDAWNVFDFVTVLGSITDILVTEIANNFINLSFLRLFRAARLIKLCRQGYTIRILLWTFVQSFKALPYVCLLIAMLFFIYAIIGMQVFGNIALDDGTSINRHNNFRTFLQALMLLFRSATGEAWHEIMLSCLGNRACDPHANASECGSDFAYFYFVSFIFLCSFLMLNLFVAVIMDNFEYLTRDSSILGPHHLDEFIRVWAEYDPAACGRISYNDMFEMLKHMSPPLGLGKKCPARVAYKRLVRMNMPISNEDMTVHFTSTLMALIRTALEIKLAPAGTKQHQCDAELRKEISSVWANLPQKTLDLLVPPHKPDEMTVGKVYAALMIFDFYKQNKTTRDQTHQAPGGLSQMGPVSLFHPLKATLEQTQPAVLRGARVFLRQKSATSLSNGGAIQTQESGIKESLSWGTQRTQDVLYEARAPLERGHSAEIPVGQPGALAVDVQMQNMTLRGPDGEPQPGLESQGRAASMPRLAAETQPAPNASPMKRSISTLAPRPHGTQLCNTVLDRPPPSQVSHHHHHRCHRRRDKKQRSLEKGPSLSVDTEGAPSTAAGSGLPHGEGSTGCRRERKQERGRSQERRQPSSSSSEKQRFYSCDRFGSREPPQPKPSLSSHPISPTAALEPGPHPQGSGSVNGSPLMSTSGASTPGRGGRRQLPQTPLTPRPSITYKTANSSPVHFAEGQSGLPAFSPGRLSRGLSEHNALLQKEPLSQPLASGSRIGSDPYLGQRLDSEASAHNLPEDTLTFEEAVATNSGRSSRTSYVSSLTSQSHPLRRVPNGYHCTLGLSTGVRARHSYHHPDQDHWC

Row | SMILES | IC50 [nM]
1 | Cc1ccc(C(c2ccccc2)N2CCN(C(=O)CC(c3ccccc3)c3ccccc3)CC2)cc1 (stereo not drawn) [Compound P23] | 490
2 | O=C(CC(c1ccccc1)c1ccccc1)N1CCN(C(c2ccccc2)c2ccc(Cl)c(Cl)c2)CC1 (stereo not drawn) [Compound P30] | > 1000
3 | COc1cc(OC)cc(C(c2ccccc2)N2CCN(C(=O)CC(c3ccccc3)c3ccccc3)CC2)c1 (stereo not drawn) [Compound P14] | 320
4 | O=C(CC(c1ccccc1)c1ccccc1)N1CCN(C(c2ccccc2)c2ccc(Cl)cc2Cl)CC1 (stereo not drawn) [P29 (HC1)] | > 1000
5 | COc1ccc(C(c2ccc3c(c2)OCO3)N2CCN(C(=O)CC(c3ccccc3)c3ccccc3)CC2)cc1 (stereo not drawn) [Compound P26] | 710
6 | O=C(O)C1CN(C(c2ccccc2)c2ccccc2)CCN1C(=O)CC1c2ccccc2-c2ccccc21 (stereo not drawn) [Compound P38] | 200
7 | O=C(CC(c1ccccc1)c1ccccc1)N1CCN(C2c3ccccc3CCc3ccccc32)CC1 [P32 (HC1)] | > 1000
8 | O=C(CC(c1ccccc1)c1ccccc1)N1CCN(C(c2ccccc2)c2c(Cl)cccc2Cl)CC1 (stereo not drawn) [Compound P13] | 300
9 | O=C(CC(c1ccccc1)c1ccccc1)N1CCN(C(c2ccccc2)c2cc(Cl)cc(Cl)c2)CC1 (stereo not drawn) [Compound P9] | 230
10 | O=C(CC(c1ccccc1)c1ccccc1)N1CCN(C(c2ccccc2)c2ccc(OCc3ccccc3)cc2)CC1 (stereo not drawn) [Compound P17] | 286
11 | O=C(CC(c1ccccc1)c1ccccc1)N1CCN(C(c2ccccc2)c2ccccc2OC(F)F)CC1 (stereo not drawn) [Compound P12] | 340
12 | O=C(CC(c1ccccc1)c1ccccc1)N1CCN(C2c3ccccc3Oc3ccccc32)CC1 [Compound P16] | 290
13 | O=C(O)C1CN(C(c2ccccc2)c2ccccc2)CCN1C(=O)CC(c1ccccc1)c1ccccc1 (stereo not drawn) [Compound P42] | 1900
14 | N#CC1CN(C(c2ccccc2)c2ccccc2)CCN1C(=O)CC(c1ccccc1)c1ccccc1 (stereo not drawn) [Compound P45] | 230
15 | CC(C)(C)c1ccc(C(c2ccccc2)N2CCN(C(=O)CC(c3ccccc3)c3ccccc3)CC2)cc1 (stereo not drawn) [Compound P11] | 370
16 | CCOC(=O)C1CN(C(c2ccccc2)c2ccccc2)CCN1C(=O)CC(c1ccccc1)c1ccccc1 (stereo not drawn) [Compound P43] | 167
17 | CCOC(=O)C1CN(C(c2ccccc2)c2ccccc2)CCN1C(=O)CC1c2ccccc2-c2ccccc21 (stereo not drawn) [Compound P39] | 240

Same assay, conditions: 0.2 Hz; HEK 293, 5 mM barium as charge carrier; read-out: Block of α1B N-type Channels IC50, 0.2 Hz

Row | SMILES | IC50 [nM]
18 | Cc1ccc(C(c2ccccc2)N2CCN(C(=O)CC(c3ccccc3)c3ccccc3)CC2)cc1 (stereo not drawn) [Compound P23] | 310
19 | O=C(CC(c1ccccc1)c1ccccc1)N1CCN(C(c2ccccc2)c2ccc(Cl)c(Cl)c2)CC1 (stereo not drawn) [Compound P30] | > 1000
20 | COc1cc(OC)cc(C(c2ccccc2)N2CCN(C(=O)CC(c3ccccc3)c3ccccc3)CC2)c1 (stereo not drawn) [Compound P14] | 210
21 | O=C(CC(c1ccccc1)c1ccccc1)N1CCN(C(c2ccccc2)c2ccc(Cl)cc2Cl)CC1 (stereo not drawn) [P29 (HC1)] | > 1000
22 | COc1ccc(C(c2ccc3c(c2)OCO3)N2CCN(C(=O)CC(c3ccccc3)c3ccccc3)CC2)cc1 (stereo not drawn) [Compound P26] | 533
23 | O=C(O)C1CN(C(c2ccccc2)c2ccccc2)CCN1C(=O)CC1c2ccccc2-c2ccccc21 (stereo not drawn) [Compound P38] | 160
24 | O=C(CC(c1ccccc1)c1ccccc1)N1CCN(C2c3ccccc3CCc3ccccc32)CC1 [P32 (HC1)] | 830
25 | O=C(CC(c1ccccc1)c1ccccc1)N1CCN(C(c2ccccc2)c2c(Cl)cccc2Cl)CC1 (stereo not drawn) [Compound P13] | 210
26 | O=C(CC(c1ccccc1)c1ccccc1)N1CCN(C(c2ccccc2)c2cc(Cl)cc(Cl)c2)CC1 (stereo not drawn) [Compound P9] | 170
27 | O=C(CC(c1ccccc1)c1ccccc1)N1CCN(C(c2ccccc2)c2ccc(OCc3ccccc3)cc2)CC1 (stereo not drawn) [Compound P17] | 233
28 | O=C(CC(c1ccccc1)c1ccccc1)N1CCN(C(c2ccccc2)c2ccccc2OC(F)F)CC1 (stereo not drawn) [Compound P12] | 190
29 | O=C(CC(c1ccccc1)c1ccccc1)N1CCN(C2c3ccccc3Oc3ccccc32)CC1 [Compound P16] | 220
30 | O=C(O)C1CN(C(c2ccccc2)c2ccccc2)CCN1C(=O)CC(c1ccccc1)c1ccccc1 (stereo not drawn) [Compound P42] | 1490
31 | N#CC1CN(C(c2ccccc2)c2ccccc2)CCN1C(=O)CC(c1ccccc1)c1ccccc1 (stereo not drawn) [Compound P45] | 220
32 | CC(C)(C)c1ccc(C(c2ccccc2)N2CCN(C(=O)CC(c3ccccc3)c3ccccc3)CC2)cc1 (stereo not drawn) [Compound P11] | 190
33 | CCOC(=O)C1CN(C(c2ccccc2)c2ccccc2)CCN1C(=O)CC(c1ccccc1)c1ccccc1 (stereo not drawn) [Compound P43] | 83
34 | CCOC(=O)C1CN(C(c2ccccc2)c2ccccc2)CCN1C(=O)CC1c2ccccc2-c2ccccc21 (stereo not drawn) [Compound P39] | 190

Molecular target: T2, human α1G subunits (T-type channels) (Homo sapiens, UniProt O43497)
T2 construct: expressed in transfected cells
T2 sequence (O43497 whole entry): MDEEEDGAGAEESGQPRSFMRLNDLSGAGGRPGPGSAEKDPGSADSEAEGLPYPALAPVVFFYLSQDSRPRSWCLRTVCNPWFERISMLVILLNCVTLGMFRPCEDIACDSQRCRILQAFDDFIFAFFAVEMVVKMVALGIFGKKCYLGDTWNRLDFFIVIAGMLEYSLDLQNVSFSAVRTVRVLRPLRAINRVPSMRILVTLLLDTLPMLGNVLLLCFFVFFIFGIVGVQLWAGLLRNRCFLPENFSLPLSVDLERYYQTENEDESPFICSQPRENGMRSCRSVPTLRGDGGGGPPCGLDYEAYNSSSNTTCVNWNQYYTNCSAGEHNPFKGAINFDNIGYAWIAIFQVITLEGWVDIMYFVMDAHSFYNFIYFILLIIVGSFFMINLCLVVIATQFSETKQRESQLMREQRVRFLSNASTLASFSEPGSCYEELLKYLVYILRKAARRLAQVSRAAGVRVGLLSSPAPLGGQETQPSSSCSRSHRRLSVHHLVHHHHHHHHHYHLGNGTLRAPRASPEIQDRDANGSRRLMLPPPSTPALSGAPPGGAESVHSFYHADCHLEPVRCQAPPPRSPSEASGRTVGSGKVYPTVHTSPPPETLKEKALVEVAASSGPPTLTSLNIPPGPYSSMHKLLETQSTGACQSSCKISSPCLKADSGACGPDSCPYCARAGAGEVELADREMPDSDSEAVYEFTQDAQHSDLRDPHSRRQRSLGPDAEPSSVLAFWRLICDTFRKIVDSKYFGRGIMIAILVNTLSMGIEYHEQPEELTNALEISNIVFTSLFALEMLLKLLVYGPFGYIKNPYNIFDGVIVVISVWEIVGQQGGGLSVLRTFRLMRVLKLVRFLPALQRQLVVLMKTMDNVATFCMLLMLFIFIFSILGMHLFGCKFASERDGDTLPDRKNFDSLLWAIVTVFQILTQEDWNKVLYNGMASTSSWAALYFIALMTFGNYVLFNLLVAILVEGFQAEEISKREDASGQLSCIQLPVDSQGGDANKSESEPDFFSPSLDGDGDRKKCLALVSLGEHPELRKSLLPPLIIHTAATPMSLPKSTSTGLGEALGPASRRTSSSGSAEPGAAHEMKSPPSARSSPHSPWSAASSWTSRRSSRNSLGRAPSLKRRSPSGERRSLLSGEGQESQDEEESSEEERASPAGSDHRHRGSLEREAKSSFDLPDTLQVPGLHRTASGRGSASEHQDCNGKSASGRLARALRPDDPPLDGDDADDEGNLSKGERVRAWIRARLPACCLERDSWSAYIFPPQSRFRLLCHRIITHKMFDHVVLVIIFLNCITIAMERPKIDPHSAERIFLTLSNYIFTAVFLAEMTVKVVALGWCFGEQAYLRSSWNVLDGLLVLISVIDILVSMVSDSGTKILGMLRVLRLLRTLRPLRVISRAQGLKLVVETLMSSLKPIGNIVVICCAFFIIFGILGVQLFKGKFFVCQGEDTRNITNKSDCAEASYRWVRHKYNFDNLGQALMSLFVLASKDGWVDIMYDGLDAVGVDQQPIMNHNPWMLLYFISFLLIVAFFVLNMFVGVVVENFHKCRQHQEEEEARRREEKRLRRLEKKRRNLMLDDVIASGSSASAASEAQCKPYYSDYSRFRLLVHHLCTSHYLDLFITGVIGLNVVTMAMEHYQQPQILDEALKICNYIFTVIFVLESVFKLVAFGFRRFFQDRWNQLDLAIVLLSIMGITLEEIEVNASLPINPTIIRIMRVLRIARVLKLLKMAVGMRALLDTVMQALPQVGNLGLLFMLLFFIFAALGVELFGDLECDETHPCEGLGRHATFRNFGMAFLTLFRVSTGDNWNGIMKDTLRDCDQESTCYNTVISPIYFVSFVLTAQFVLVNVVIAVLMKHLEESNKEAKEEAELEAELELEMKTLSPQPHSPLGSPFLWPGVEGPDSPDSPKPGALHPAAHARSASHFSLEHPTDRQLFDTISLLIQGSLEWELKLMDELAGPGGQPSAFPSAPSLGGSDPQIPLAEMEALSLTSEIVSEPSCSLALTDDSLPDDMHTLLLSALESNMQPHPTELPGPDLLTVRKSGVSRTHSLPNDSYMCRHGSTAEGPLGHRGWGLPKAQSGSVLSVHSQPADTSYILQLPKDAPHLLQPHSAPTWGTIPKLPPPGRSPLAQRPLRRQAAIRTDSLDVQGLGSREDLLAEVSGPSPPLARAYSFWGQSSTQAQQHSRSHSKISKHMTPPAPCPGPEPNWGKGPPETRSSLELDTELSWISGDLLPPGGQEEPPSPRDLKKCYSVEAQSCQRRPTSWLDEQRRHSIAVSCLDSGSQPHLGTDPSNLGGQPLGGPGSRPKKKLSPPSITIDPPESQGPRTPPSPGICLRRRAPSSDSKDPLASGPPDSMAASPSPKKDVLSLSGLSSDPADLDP
Assay: Block of α1G T-type channels, patch clamp in HEK cell lines (Example 8)
Type: cell-based
Details: 80 mV (inactivation protocol); read-out: Block of α1G T-type Channels IC50, 80 mV
Protocol: Standard patch-clamp techniques were employed to identify blockers of T-type currents. Briefly, previously described HEK cell lines stably expressing human α1G subunits were used for all the recordings (passage #: 4-20, 37° C., 5% CO2). To obtain T-type currents, plastic dishes containing semi-confluent cells were positioned on the stage of a ZEISS AXIOVERT S100 microscope after replacing the culture medium with external solution (see below). Whole-cell patches were obtained using pipettes (borosilicate glass with filament, O.D.: 1.5 mm, I.D.: 0.86 mm, 10 cm length), fabricated on a SUTTER P-97 puller with resistance values of ˜5 MΩ (see below for internal medium).
In the non-inactivating protocol, the holding potential is set at −110 mV and with a pre-pulse at −100 mV for 1 second prior to the test pulse at −40 mV for 50 ms; in the inactivation protocol, the pre-pulse is at approximately −85 mV for 1 second, which inactivates about 15% of the T-type channels, as shown below. [formula]
Test compounds were dissolved in external solution, 0.1-0.01% DMSO. After ˜10 min rest, they were applied by gravity close to the cell using a WPI microfil tubing. The “non-inactivated” pre-pulse was used to examine the resting block of a compound. The “inactivated” protocol was employed to study voltage-dependent block, but the initial data shown below were mainly obtained using the non-inactivated protocol only. IC50 values are shown for various compounds of the invention in Table 5.

Row | SMILES | IC50 [nM]
35 | O=C(O)C1CN(C(c2ccccc2)c2ccccc2)CCN1C(=O)CC1c2ccccc2-c2ccccc21 (stereo not drawn) [Compound P38] | 181
36 | O=C(O)C1CN(C(c2ccccc2)c2ccccc2)CCN1C(=O)CC(c1ccccc1)c1ccccc1 (stereo not drawn) [Compound P42] | 1840
37 | N#CC1CN(C(c2ccccc2)c2ccccc2)CCN1C(=O)CC(c1ccccc1)c1ccccc1 (stereo not drawn) [Compound P45] | 833
38 | CCOC(=O)C1CN(C(c2ccccc2)c2ccccc2)CCN1C(=O)CC(c1ccccc1)c1ccccc1 (stereo not drawn) [Compound P43] | 279
39 | CCOC(=O)C1CN(C(c2ccccc2)c2ccccc2)CCN1C(=O)CC1c2ccccc2-c2ccccc21 (stereo not drawn) [Compound P39] | 768

Same assay, conditions: 100 mV (non-inactivating protocol)

Row | SMILES | Block of α1G T-type Channels IC50, 100 mV
40 | O=C(CC(c1ccccc1)c1ccccc1)N1CCN(C(c2ccccc2)c2ccc(OCc3ccccc3)cc2)CC1 (stereo not drawn) [Compound P17] | No effect
41 | O=C(O)C1CN(C(c2ccccc2)c2ccccc2)CCN1C(=O)CC(c1ccccc1)c1ccccc1 (stereo not drawn) [Compound P42] | no effect

Same assay, conditions: 100 mV (non-inactivating protocol); read-out: Block of α1G T-type Channels IC50, 100 mV

Row | SMILES | IC50 [nM]
42 | O=C(CC(c1ccccc1)c1ccccc1)N1CCN(C(c2ccccc2)c2ccc(Cl)c(Cl)c2)CC1 (stereo not drawn) [Compound P30] | > 1000
43 | O=C(O)C1CN(C(c2ccccc2)c2ccccc2)CCN1C(=O)CC1c2ccccc2-c2ccccc21 (stereo not drawn) [Compound P38] | 699
44 | O=C(CC(c1ccccc1)c1ccccc1)N1CCN(C(c2ccccc2)c2c(Cl)cccc2Cl)CC1 (stereo not drawn) [Compound P13] | < 1000
45 | O=C(CC(c1ccccc1)c1ccccc1)N1CCN(C(c2ccccc2)c2cc(Cl)cc(Cl)c2)CC1 (stereo not drawn) [Compound P9] | > 1000
46 | N#CC1CN(C(c2ccccc2)c2ccccc2)CCN1C(=O)CC(c1ccccc1)c1ccccc1 (stereo not drawn) [Compound P45] | 10000
47 | CCOC(=O)C1CN(C(c2ccccc2)c2ccccc2)CCN1C(=O)CC(c1ccccc1)c1ccccc1 (stereo not drawn) [Compound P43] | 2380
48 | CCOC(=O)C1CN(C(c2ccccc2)c2ccccc2)CCN1C(=O)CC1c2ccccc2-c2ccccc21 (stereo not drawn) [Compound P39] | 2200
